Measured values taken from article PMC9228468, “Relevance of Therapeutic Drug Monitoring of Tyrosine Kinase Inhibitors in Routine Clinical Practice: A Pilot Study” (Pharmaceutics, 2022).

Experiments:
[1] = cited from earlier work
[2] = Incidence of toxicity (CTCAE grades), first vs last monitored cycle; assay type: in vivo, human; settings: for Patients with toxicity: at start of treatment; for Toxicity: RI G1: renal insufficiency grade 1 (IR G1 for sorafenib); for Toxicity: RI G2: renal insufficiency grade 2
Description: (§1) Patients’ medical records were reviewed with the aim of studying all possible factors related to the patient and the medication that may influence the evolution of the plasma concentrations of TKIs. Sociodemographic and anthropometric, pharmacological treatment, clinical, toxicity and therapeutic drug monitoring data were collected. Treatment response was determined according to the […]. Adverse events were recorded by grade according to the Common Terminology Criteria for Adverse Events version 3.0 (CTCAE v 3.0).
To compare the variation in categorical variables (rash, diarrhea, fatigue, abdominal pain, hypertension, and mucositis) between the first and the last monitored cycle, the non-parametric chi-square test was performed.

[3] = Groups of patients according to exposure and toxicity; assay type: in vivo, human; settings: for % patients, Group 1 / % patients, Group 3: Drug concentrations above target level: No; for % patients, Group 1 / % patients, Group 2: Toxicities: No; for % patients, Group 3 / % patients, Group 4: Toxicities: Yes; for % patients, Group 2 / % patients, Group 4: Drug concentrations above target level: Yes
[4] = Survival analysis (Kaplan-Meier, PFS and OS); assay type: in vivo, human; settings: real-world cancer patients with TDM
Description: as §1
To assess the relationship between treatments protocols and disease progression or mortality, a Kaplan–Meier survival curve was plotted.

[5] = Therapeutic drug monitoring: plasma levels by HPLC-UV, dose-normalized plasma concentrations; assay type: in vivo, human
Description: (§2) Monitoring was carried out in all cases after at least fifteen days from the start of treatment, when the plasma levels of the drug were considered at steady state. Blood samples were extracted just before ingestion of the tablet/s and at different times after ingestion. The drug was administered in the fasted state and patients were told they could eat food after the second blood sample was drawn. Sampling times, which are defined for each drug in Table 1, were selected based on the optimal sampling theory and pharmacokinetic models previously published in the scientific literature. […] The total blood volume extracted was between 4 and 5 mL for each sample. All samples were centrifuged after extraction at 3500 r.p.m. for 10 min at room temperature and the plasma obtained was frozen at −80 °C until bioanalysis.
Bioanalysis was carried out using high-performance liquid chromatography (HPLC) coupled with ultraviolet (UV) detection.
As the stationary phase, an Ultrabase® C18 chromatographic column, 4.6 mm in diameter by 150 mm in length, made of stainless steel and filled with a C18 reversed-phase siliceous substrate with a particle size of 5 µm, was used. A mixture of 40% of 0.02 M ammonium acetate, pH = 7, and 60% acetonitrile: methanol at a ratio of 70:30 (v/v) was used as the mobile phase. The linearity of the technique included a concentration range of 0.05–7.5 µg/mL. The limit of quantification was 0.5 µg/mL. Solid–liquid extraction was used and the analysis time was 9 min.
The stationary phase used was an Ultrabase® C18 chromatographic column, 4.6 mm in diameter by 150 mm in length, made of stainless steel and filled with a C18 reversed-phase siliceous substrate with a particle size of 5 µm. The mobile phase used was a 40% mixture of 0.02 M ammonium acetate, pH = 7, and 60% acetonitrile: methanol at a ratio of 70:30 (v/v). The linearity of the technique included a concentration range of 0.05–5 µg/mL. The limit of quantification was 0.5 µg/mL. Solid–liquid extraction was used and the analysis time was 10 min.
(§3) The stationary phase used was a Kromasil® C18 chromatographic column, 4.6 mm in diameter by 150 mm in length, made of stainless steel and filled with a C18 reversed-phase siliceous substrate with a particle size of 5 µm. The mobile phase used was a mixture of acetonitrile and 0.02 M ammonium acetate, pH = 3.5, at a ratio of 53:47 (v/v). The linearity of the technique included a concentration range of 0.02–10 µg/mL. The limit of quantification was 0.2 µg/mL. Liquid–liquid extraction was used and the analysis time was 12 min [51].
as §3, with “0.1–20” for “0.02–10”, “0.1” for “0.2”, “[52].” for “[51].”
The program was compiled with the DIGITAL Visual Fortran version 6.6C program. The graphics were made with the S-Plus 6.1 Professional Edition program for Windows (Insightful, Seattle, WA, USA). A one-compartment pharmacokinetic model with first-order absorption and elimination kinetics was selected to describe erlotinib plasma concentrations, as performed previously by other authors. The fixed-effect parameters estimated by the model were V (volume of distribution, L), CL (plasma clearance, L/h) and Ka (absorption constant). The model included plasma ALT concentration and age as covariates in CL, and weight in V.
The model was parameterized in terms of D1 (zero-order absorption duration), V and CL, and included the plasma concentration of α 1-acid glycoprotein as a covariate in CL. […]

[6] = TDM-guided dose adjustment recommendations per monitored cycle; assay type: in vivo, human; settings: for monitored cycles with recommendation to decrease the dose: concentrations above therapeutic range; for monitored cycles with recommendation to increase the prescribed dose: concentrations below target therapeutic range; for monitored cycles with recommendation to maintain the current dose: concentrations within therapeutic range; for monitored cycles with recommendation to suspend/suppress the drug: in vivo
Description: Patients included in this study received drugs at doses previously established by their doctors, according to data sheet indications and clinical judgment. In all cases, drug dose was prescribed before the patient enrolled onto this study and was not affected by this study prior to enrollment.
as §2

[7] = cited from earlier work; remark: listed apart in the source
[8] = phase II study of 57 NSCLC patients
[9] = last monitored cycle, after TDM and dose adjustments
[10] = last monitored cycle, after TDM and dose adjustment

| Structure (SMILES) | Patients with toxicity [2] | Toxicity: Anemia G1 ([2]; in vivo) | Toxicity: Anemia G2 ([2]; in vivo) | Toxicity: Diarrhea G2 ([2]; in vivo) | Toxicity: Mucositis G3 ([2]; in vivo) | Toxicity: Skin rash G1 ([2]; in vivo) | Toxicity: Skin rash G3 ([2]; in vivo) | analytical parameters related to toxicity and defined toxicities, first vs last monitored cycle ([2]; in vivo) | patients who developed toxicity at the start of treatment ([2]; in vivo) [%] | Toxicity: RI G1 [2] | % patients, Group 3 [3] [%] | % patients, Group 2 [3] [%] | % patients, Group 4 [3] [%] | Overall Survival, Median [4] [Months] | Progression-Free Survival, Median [4] [Months] | mean interpatient variability in dose-normalized plasma concentrations (CV) ([5]; first monitored cycle) [%] | mean interpatient variability in dose-normalized plasma concentrations (CV) [5, 9] [%] | monitored cycles with recommendation to decrease the dose [6] [%] | monitored cycles with recommendation to increase the prescribed dose [6] [%] | monitored cycles with recommendation to suspend/suppress the drug [6] [%] | also measured |
| --- | --- | --- | --- | --- | --- | --- | --- | --- | --- | --- | --- | --- | --- | --- | --- | --- | --- | --- | --- | --- | --- |
| C#Cc1cccc(Nc2ncnc3cc(OCCOC)c(OCCOC)cc23)c1 [Erlotinib, erlotinib] | 9 (45.4) n. (%) | 4 (18.1) n. (%) | 2 (9.1) n. (%) | 3 (13.6) n. (%) | 1 (4.5) n. (%) | 5 (22.7) n. (%) | 3 (13.6) n. (%) | no significant differences | 45.4 | 9 (45.4) n. (%) | 22.7 | 13.6 | 45.5 | 32 | 8 | 46.2 | 44 | 3.6 | 38.2 | 3.6 | OS ([1]; 26 NSCLC patients): 16.9 months; PFS ([1]; 26 NSCLC patients): 6.3 months; OS of patients with grade 1 rash [1, 8]: 8.5 months; OS of patients with grade 2 rash [1, 8]: 19.6 months; OS of patients without rash [1, 8]: 1.5 months; patients with grade 2 skin rash ([2]; first monitored cycle): 13.6%; patients with grade 3 mucositis ([2]; first monitored cycle): 4.5%; patients with grade 3 thrombocytopenia ([2]; first monitored cycle): 4.5%; Toxicity: Fatigue G2 ([2]; in vivo): 2 (9.1) n. (%); Toxicity: Skin rash G2 ([2]; in vivo): 3 (13.6) n. (%); patients with grade 2 skin rash ([2]; last monitored cycle): 14.3%; patients with grade 3 mucositis ([2]; last monitored cycle): 0%; patients with grade 3 rash ([2]; last monitored cycle): 7.1%; patients with grade 3 thrombocytopenia ([2]; last monitored cycle): 0%; Toxicity: RI G2 [2]: 4 (18.1) n. (%); Toxicity: Thromb. G3 ([2]; trombopenia grade 3): 1 (4.5) n. (%); % patients, Group 1 [3]: 18.2%; monitored cycles with recommendation to maintain the current dose [6]: 54.5%; fraction of a single dose eliminated in the urine [7]: 9%; patients with plasma concentrations below the target ([7]; target 500 mg/L, lung cancer patients): 11.1% |
| Cc1ccc(NC(=O)c2ccc(CN3CCN(C)CC3)cc2)cc1Nc1nccc(-c2cccnc2)n1 [Imatinib, imatinib] | – | – | – | – | – | – | – | – | – | – | – | – | – | – | – | 48.91 | 50.84 | – | – | – | mean interpatient variability in dose-normalized plasma concentrations (CV) ([5]; first monitored cycle, listed as imatinib): 48.9%; mean interpatient variability in dose-normalized plasma concentrations (CV) ([5]; last monitored cycle, after TDM and dose adjustments, listed as imatinib): 50.8% |
| CS(=O)(=O)CCNCc1ccc(-c2ccc3ncnc(Nc4ccc(OCc5cccc(F)c5)c(Cl)c4)c3c2)o1 [Lapatinib, lapatinib] | 12 (75.0) n. (%) | 3 (18.7) n. (%) | 2 (12.5) n. (%) | 1 (6.2) n. (%) | 1 (6.2) n. (%) | 1 (6.2) n. (%) | 1 (6.2) n. (%) | no significant differences | 75 | 6 (37.5) n. (%) | 18.7 | 6.2 | 69.5 | 46 | 8 | 60.7 | 56 | 8.6 | 14.3 | 8.6 | toxicities detected ([2]; after performing TDM): 5 cases; toxicities detected ([2]; first monitored cycle): 25 cases; reduction of toxicity events by TDM ([2]; first vs last monitored cycle): 80%; Toxicity: Anemia G3 ([2]; in vivo): 1 (6.2) n. (%); Toxicity: Diarrhea G1 ([2]; in vivo): 2 (12.5) n. (%); Toxicity: Diarrhea G3 ([2]; in vivo): 1 (6.2) n. (%); Toxicity: Pain ([2]; in vivo): 2 (12.5) n. (%); Toxicity: Neutr. G3 ([2]; neutropenia grade 3): 2 (12.5) n. (%); Toxicity: RI G2 [2]: 2 (12.5) n. (%); % patients, Group 1 [3]: 6.2%; monitored cycles with recommendation to maintain the current dose [6]: 68.6%; increase in AUC with high-fat meals [7]: more than 3 fold; interpatient variability in exposure, AUC [7]: 42–117%; interpatient variability in exposure, Ctrough [7]: 55–97%; t1/2 in severe liver failure relative to normal liver function [7]: 3 fold; increase of mean AUC in patients with severe liver failure ([7]; vs normal liver function): more than 60% |
| CNC(=O)c1cc(Oc2ccc(NC(=O)Nc3ccc(Cl)c(C(F)(F)F)c3)cc2)ccn1 [Sorafenib, sorafenib] | – | 2 (18.2) n. (%) | 1 (9.1) n. (%) | 1 (9.1) n. (%) | – | – | – | – | 63.3 | 2 (18.2) n. (%) | 9.1 | 54.4 | 9.1 | 9 | 9 | 89.7 | 72.5 | 6.9 | 17.2 | 3.4 | Toxicity: Abdominal pain ([2]; in vivo): 2 (18.2) n. (%); patients with anemia [2, 10]: 50%; patients with grade 3 neutropenia [2, 10]: 25%; Toxicity: Thromb. G1 ([2]; trombopenia grade 1): 1 (9.1) n. (%); dose above which gastrointestinal absorption saturates [7]: greater than 800 mg; variability in exposure between patients, AUC [7]: 12–117%; variability in exposure between patients, apparent oral Cl [7]: 13–80% |
| Cc1cn(-c2cc(NC(=O)c3ccc(C)c(Nc4nccc(-c5cccnc5)n4)c3)cc(C(F)(F)F)c2)cn1 [nilotinib] | – | – | – | – | – | – | – | – | – | – | – | – | – | – | – | – | – | – | – | – | increase in AUC with high-fat meals [7]: up to 80% |
| Cc1ccc(Nc2nccc(N(C)c3ccc4c(C)n(C)nc4c3)n2)cc1S(N)(=O)=O [pazopanib] | – | – | – | – | – | – | – | – | – | – | – | – | – | – | – | – | – | – | – | – | AUC when administered with food compared to fasted state [7]: doubled; dose above which plasma AUC does not increase ([7]; solubility limitations in the digestive tract): greater than 800 mg |
